# According to ChEMBL document CHEMBL3352719 (Bioorg Med Chem, 2014):
# Tests used:
# cells = conditions: Influenza A virus, MDCK, 48 h
# [1] = Cytotoxicity against MDCK cells after 48 hrs by CellTiter96 assay; type: cell-based, Canis lupus familiaris; conditions: dog
# [2] = Cytotoxicity against human 293T cells after 48 hrs by CellTiter96 assay; type: cell-based, HEK-293T
compound,measurement,setting,value
CCC(CC)O[C@@H]1C=C(C(=O)NO)C[C@H](N)[C@H]1NC(C)=O,EC50,cells,359 nM
CCC(CC)O[C@@H]1C=C(C(=O)NOC)C[C@H](N)[C@H]1NC(C)=O,EC50,cells,127 nM
CCC(CC)O[C@@H]1C=C(C(=O)NOCc2ccccc2)C[C@H](N)[C@H]1NC(C)=O,EC50,cells,72.4 nM
CCC(CC)O[C@@H]1C=C(C(=O)NOCCCc2cc3ccccc3[nH]2)C[C@H](N)[C@H]1NC(C)=O,EC50,cells,60.1 nM
CCC(CC)O[C@@H]1C=C(C(=O)NOC)C[C@H](NC(=N)N)[C@H]1NC(C)=O,EC50,cells,71.7 nM
same,CC50 at 48 h,[1],> 100000 nM
same,CC50 at 48 h,[2],> 100000 nM
CCC(CC)O[C@@H]1C=C(C(=O)NOCc2ccccc2)C[C@H](NC(=N)N)[C@H]1NC(C)=O,EC50,cells,23.8 nM
CCC(CC)O[C@@H]1C=C(C(=O)NOCCCc2cc3ccccc3[nH]2)C[C@H](NC(=N)N)[C@H]1NC(C)=O,EC50,cells,90.7 nM
same,CC50 at 48 h,[1],> 100000 nM
same,CC50 at 48 h,[2],> 100000 nM
CCC(CC)O[C@@H]1C=C(C(=O)NS(C)(=O)=O)C[C@H](N)[C@H]1NC(C)=O,EC50,cells,401 nM
CCC(CC)O[C@@H]1C=C(C(=O)NS(=O)(=O)C(F)(F)F)C[C@H](N)[C@H]1NC(C)=O,EC50,cells,2220 nM
CCCCS(=O)(=O)NC(=O)C1=C[C@@H](OC(CC)CC)[C@H](NC(C)=O)[C@@H](N)C1,EC50,cells,1980 nM
CCC(CC)O[C@@H]1C=C(C(=O)NS(=O)(=O)c2ccccc2)C[C@H](N)[C@H]1NC(C)=O,EC50,cells,7490 nM
CCC(CC)O[C@@H]1C=C(C(=O)NS(C)(=O)=O)C[C@H](NC(=N)N)[C@H]1NC(C)=O,EC50,cells,59.1 nM
same,CC50 at 48 h,[1],> 100000 nM
same,CC50 at 48 h,[2],> 100000 nM
CCC(CC)O[C@@H]1C=C(C(=O)NS(=O)(=O)C(F)(F)F)C[C@H](NC(=N)N)[C@H]1NC(C)=O,EC50,cells,484 nM
CCCCS(=O)(=O)NC(=O)C1=C[C@@H](OC(CC)CC)[C@H](NC(C)=O)[C@@H](NC(=N)N)C1,EC50,cells,261 nM
CCC(CC)O[C@@H]1C=C(C(=O)NS(=O)(=O)c2ccccc2)C[C@H](NC(=N)N)[C@H]1NC(C)=O,EC50,cells,593 nM
CCC(CC)O[C@@H]1C=C(C(=O)O)C[C@H](N)[C@H]1NC(C)=O [OSELTAMIVIR CARBOXYLATE],EC50,cells,28.2 nM
